Test results from patent US20240376073A1 (Hoffmann-La Roche Inc., priority 2021, published 2024).
Counter-ions that a name gives are not always drawn. Like-named read-outs stand apart in the source and are kept apart here.

Tested on: Acinetobacter baumannii ATCC17961
Test: Antimicrobial susceptibility testing: 90% growth inhibitory concentration (IC90) determination
Format: cell-based
Settings: Iso-Sensitest broth, growth by OD 600 nm over 16 h, 35±2° C.
In short: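 Twofold serial dilutions (e.g. 50 to 0.097 μM final) in Iso-Sensitest broth, inoculated at ~5×10^(5) CFU/ml, incubated at 35±2° C. OD600 read every 20 min over 16 h; IC90 derived from growth inhibition during logarithmic growth.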

[1] = Acinetobacter baumannii, ATCC17961, 16 h, read-out: ATCC 17961 IC90, Acinetobacter baumannii ATCC17961
[2] = Acinetobacter baumannii ATCC17961, read-out: ATCC 17961 IC90

IC90 [2] | SMILES | IC90 [1]
 | COc1ccc(-c2cnc(C(=O)Nc3ccc(C(=O)N4CCN(C(=O)NC5C[N+](C)(C)CC5O)CC4)c(Cl)c3)n2C)c(F)c1F (stereo not drawn) [Example B39, 4-[2-chloro-4-[[5-(2,3-difluoro-4-methoxy-phenyl)-1-methyl-imidazole-2-carbonyl]amino]benzoyl]-N-(4-hydroxy-1,1-dimethyl-pyrrolidin-1-ium-3-yl)piperazine-1-carboxamide; formate] | 0.11 µM
 | COc1ccc(-c2cnc(C(=O)Nc3ccc(C(=O)N4CCN(C(=O)[C@@H]5C[C@@H](O)C[N+]5(C)C)CC4)c(Cl)c3)n2C)c(C(F)F)c1F [Example B40, N-[3-chloro-4-[4-[(2S,4R)-4-hydroxy-1,1-dimethyl-pyrrolidin-1-ium-2-carbonyl]piperazine-1-carbonyl]phenyl]-5-[2-(difluoromethyl)-3-fluoro-4-methoxy-phenyl]-1-methyl-imidazole-2-carboxamide; formate] | 0.26 µM
 | Cn1c(-c2ccc(OC(F)F)c(F)c2F)cnc1C(=O)Nc1ccc(C(=O)N2CCN(C(=O)[C@@H]3C[C@@H](O)C[N+]3(C)C)CC2)c(Cl)c1 [Example B41, N-[3-chloro-4-[4-[(2S,4R)-4-hydroxy-1,1-dimethyl-pyrrolidin-1-ium-2-carbonyl]piperazine-1-carbonyl]phenyl]-5-[4-(difluoromethoxy)-2,3-difluoro-phenyl]-1-methyl-imidazole-2-carboxamide; formate] | 0.076 µM
 | COc1ccc(-c2cnc(C(=O)Nc3ccc(C(=O)N4CCN(C(=O)[C@@H]5C[C@@H](CO)C[N+]5(C)C)CC4)c(Cl)c3)n2C)c(F)c1F [Example B42, N-[3-chloro-4-[4-[(2S,4R)-4-(hydroxymethyl)-1,1-dimethyl-pyrrolidin-1-ium-2-carbonyl]piperazine-1-carbonyl]phenyl]-5-(2,3-difluoro-4-methoxy-phenyl)-1-methyl-imidazole-2-carboxamide; formate] | 0.14 µM
 | COc1ccc(-c2cnc(C(=O)Nc3ccc(C(=O)N4CCN(C(=O)[C@@H]5C[C@@H](O)C[N+]5(C)C)CC4)c(Cl)c3)n2C)c(Cl)c1F [Example B43, 5-(2-chloro-3-fluoro-4-methoxy-phenyl)-N-[3-chloro-4-[4-[(2S,4R)-4-hydroxy-1,1-dimethyl-pyrrolidin-1-ium-2-carbonyl]piperazine-1-carbonyl]phenyl]-1-methyl-imidazole-2-carboxamide; formate] | 0.12 µM
 | COc1ccc(-c2cnc(C(=O)Nc3ccc(C(=O)N4CCN(C(=O)[C@@H]5[C@H](O)CC[N+]5(C)C)CC4)c(Cl)c3)n2C)c(F)c1F [Example B44, N-[3-chloro-4-[4-[(2S,3R)-3-hydroxy-1,1-dimethyl-pyrrolidin-1-ium-2-carbonyl]piperazine-1-carbonyl]phenyl]-5-(2,3-difluoro-4-methoxy-phenyl)-1-methyl-imidazole-2-carboxamide; formate] | 0.42 µM
 | Cn1c(-c2ccc(OCF)c(F)c2F)cnc1C(=O)Nc1ccc(C(=O)N2CCN(C(=O)[C@@H]3C[C@@H](O)C[N+]3(C)C)CC2)c(Cl)c1 [Example B45, N-[3-chloro-4-[4-[(2S,4R)-4-hydroxy-1,1-dimethyl-pyrrolidin-1-ium-2-carbonyl]piperazine-1-carbonyl]phenyl]-5-[2,3-difluoro-4-(fluoromethoxy)phenyl]-1-methyl-imidazole-2-carboxamide; formate] | 0.093 µM
 | COc1ccc(-c2cnc(C(=O)Nc3ccc(C(=O)N4CCN(C(=O)[C@@H]5CC[C@H](O)C[N+]5(C)C)CC4)c(Cl)c3)n2C)c(F)c1F [Example B46, N-[3-chloro-4-[4-[(2S,5S)-5-hydroxy-1,1-dimethyl-piperidin-1-ium-2-carbonyl]piperazine-1-carbonyl]phenyl]-5-(2,3-difluoro-4-methoxy-phenyl)-1-methyl-imidazole-2-carboxamide; formate] | 0.12 µM
0.039 µM | Cn1c(-c2ccc(OC(F)F)c(Cl)c2F)cnc1C(=O)Nc1ccc(C(=O)N2CCN(C(=O)[C@@H]3C[C@@H](O)C[N+]3(C)C)CC2)c(Cl)c1 [Example B47, 5-[3-chloro-4-(difluoromethoxy)-2-fluoro-phenyl]-N-[3-chloro-4-[4-[(2S,4R)-4-hydroxy-1,1-dimethyl-pyrrolidin-1-ium-2-carbonyl]piperazine-1-carbonyl]phenyl]-1-methyl-imidazole-2-carboxamide; iodide] | 
 | COc1ccc(-c2cnc(C(=O)Nc3ccc(C(=O)N4CCN(C(=O)[C@@H]5C[C@@H](O)C[N+]5(C)C)CC4)c(Cl)c3)n2C)c(F)c1Cl [Example B48, 5-(3-chloro-2-fluoro-4-methoxy-phenyl)-N-[3-chloro-4-[4-[(2S,4R)-4-hydroxy-1,1-dimethyl-pyrrolidin-1-ium-2-carbonyl]piperazine-1-carbonyl]phenyl]-1-methyl-imidazole-2-carboxamide formate] | 0.076 µM
 | COc1ccc(-c2cnc(C(=O)Nc3ccc(C(=O)N4CCN(C(=O)[C@@H]5C=CC[N+]5(C)C)CC4)c(Cl)c3)n2C)c(F)c1F [Example B49, N-[3-chloro-4-[4-[(2S)-1,1-dimethyl-2,5-dihydropyrrol-1-ium-2-carbonyl]piperazine-1-carbonyl]phenyl]-5-(2,3-difluoro-4-methoxy-phenyl)-1-methyl-imidazole-2-carboxamide formate] | 0.12 µM
 | COc1ccc(-c2cnc(C(=O)Nc3ccc(C(=O)N4CCN(C(=O)[C@@H]5[C@@H](O)[C@@H](O)C[N+]5(C)C)CC4)c(Cl)c3)n2C)c(F)c1F [Example B50, N-[3-chloro-4-[4-[(2S,3R,4S)-3,4-dihydroxy-1,1-dimethyl-pyrrolidin-1-ium-2-carbonyl]piperazine-1-carbonyl]phenyl]-5-(2,3-difluoro-4-methoxy-phenyl)-1-methyl-imidazole-2-carboxamide formate] | 0.25 µM
 | COc1ccc(-c2cnc(C(=O)Nc3ccc(C(=O)N4CCN(C(=O)[C@@H]5C[C@@H](O)C[N+]5(C)C)CC4)c(Cl)c3)n2C)c(F)c1C#N [Example B51, N-[3-chloro-4-[4-[(2S,4R)-4-hydroxy-1,1-dimethyl-pyrrolidin-1-ium-2-carbonyl]piperazine-1-carbonyl]phenyl]-5-(3-cyano-2-fluoro-4-methoxy-phenyl)-1-methyl-imidazole-2-carboxamide; formate] | 0.54 µM
 | COc1ccc(-c2cnc(C(=O)Nc3ccc(C(=O)N4CCN(C(=O)[C@@H]5C[C@@H](O)C[N+]5(C)C)CC4)c(Cl)c3)n2C)c(F)c1C(F)(F)F [Example B52, N-[3-chloro-4-[4-[(2S,4R)-4-hydroxy-1,1-dimethyl-pyrrolidin-1-ium-2-carbonyl]piperazine-1-carbonyl]phenyl]-5-[2-fluoro-4-methoxy-3-(trifluoromethyl)phenyl]-1-methyl-imidazole-2-carboxamide; formate] | 0.52 µM
0.091 µM | Cn1c(-c2ccc(OC(F)F)c(F)c2Cl)cnc1C(=O)Nc1ccc(C(=O)N2CCN(C(=O)[C@@H]3C[C@@H](O)C[N+]3(C)C)CC2)c(Cl)c1 [Example B53] | 
0.35 µM | COc1ccc(-c2cnc(C(=O)Nc3ccc(C(=O)N[C@H]4[C@@H]5CN(C(=O)[C@@H]6C[C@@H](O)C[N+]6(C)C)C[C@@H]54)c(Cl)c3)n2C)c(F)c1F [Example B54, N-[3-chloro-4-[(exo)-3-[(2 S,4R)-4-hydroxy-1,1-dimethyl-pyrrolidin-1-ium-2-carbonyl]-3-azabicyclo[3.1.01 hexan-6-yl]carbamoyl]phenyl]-5-(2,3-difluoro-4-methoxy-phenyl)-1-methyl-imidazole-2-carboxamide formate] | 
0.15 µM | COc1ccc(-c2cnc(C(=O)Nc3ccc(C(=O)N[C@H]4[C@@H]5CN(C(=O)N[C@@H]6C[N+](C)(C)C[C@H]6O)C[C@@H]54)c(Cl)c3)n2C)c(F)c1F [Example B55, (exo)-6-[[2-chloro-4-[[5-(2,3-difluoro-4-methoxy-phenyl)-1-methyl-imidazole-2-carbonyl]amino]benzoyl]amino]-N-[(trans)-4-hydroxy-1,1-dimethyl-pyrrolidin-1-ium-3-yl]-3-azabicyclo[3.1.0]hexane-3-carboxamide formate] | 
0.061 µM | Cn1c(-c2ccc(OCF)c(F)c2F)cnc1C(=O)Nc1ccc(C(=O)N2CCN(C(=O)C[N+](C)(C)C)CC2)c(Cl)c1 [Example B56, [2-[4-[2-chloro-4-[[5-[2,3-difluoro-4-(fluoromethoxy)phenyl]-1-methyl-imidazole-2-carbonyl]amino]benzoyl]piperazin-1-yl]-2-oxo-ethyl]-trimethyl-ammonium; formate] | 
0.023 µM | Cn1c(-c2ccc(OC(F)F)c(F)c2Cl)cnc1C(=O)Nc1ccc(C(=O)N2CCN(C(=O)C3CC[N+](C)(CC(N)=O)CC3)CC2)c(Cl)c1 (stereo not drawn) [Example C1, N-[4-[4-[1-(2-Amino-2-oxo-ethyl)-1-methyl-piperidin-1-ium-4-carbonyl]piperazine-1-carbonyl]-3-chloro-phenyl]-5-[2-chloro-4-(difluoromethoxy)-3-fluoro-phenyl]-1-methyl-imidazole-2-carboxamide;formate] | 
0.034 µM | Cn1c(-c2ccc(OC(F)F)c(F)c2F)cnc1C(=O)Nc1ccc(C(=O)N2CCN(C(=O)C3CC[N+](C)(CC(N)=O)CC3)CC2)c(Cl)c1 (stereo not drawn) [Example C2, N-[4-[4-[1-(2-amino-2-oxo-ethyl)-1-methyl-piperidin-1-ium-4-carbonyl]-piperazine-1-carbonyl]-3-chloro-phenyl]-5-[4-(difluoro-methoxy)-2,3-difluoro-phen-yl]-1-methyl-imidazole-2-carboxamide; formate] | 
0.057 µM | COc1ccc(-c2cnc(C(=O)Nc3ccc(C(=O)N4CCN(C(=O)C5CC[N+](C)(CC(N)=O)CC5)CC4)c(Cl)c3)n2C)c(Cl)c1F (stereo not drawn) [Example C3, N-[4-[4-[1-(2-amino-2-oxo-ethyl)-1-methyl-piperidin-1-ium-4-carbonyl]-piperazine-1-carbonyl]-3-chloro-phenyl]-5-(2-chloro-3-fluoro-4-meth-oxy-phenyl)-1-methyl-imid-azole-2-carbox-amide; formate] | 
